Test results: US7037919B1, “Tetrahydroquinoline derivatives” (Kaken Pharmaceutical Co. Ltd., priority 1999, dated 2006)

Experiments:
orchiectomized rats = assay: Inhibitory action on testosterone-induced prostate weight increase in orchiectomized rats (Test Example 5); type: in vivo, rat; conditions: TP 1 mg/kg s.c. alone, once daily for one week, orchiectomized SD rats, Mean ± SD
Procedure: Inhibitory Action on Testosterone-induced Prostate Weight Increase in Orchiectomized Rats
Testes were removed from 8-week-old male SD rats. From 5 days postoperation, 1 mg/kg of testosterone propionate (hereinafter referred to as TP) and 30 mg/kg of the compound of the present invention were simultaneously injected once daily for one consecutive week. The compound of the present invention was suspended in a 0.5% methyl cellulose solution, while TP was dissolved in cottonseed oil containing 5% ethanol. Each of the test compounds was subcutaneously administered. On the next day after final administration, the wet weight of the ventral prostate was measured to evaluate the AR antagonistic effect of the compound of the present invention on TP-induced prostate weight increase.

[1] = target: T1, Rat androgen receptors (rat AR) (Rattus norvegicus, UniProt P15207); assay: Test for competitive binding to rat androgen receptors; conditions: 3H-testosterone, rat prostate AR fraction; hydroxyflutamide taken as 100
T1 construct: from tissue; host or cells: prostate of orchiectomized male SD rats (100,000 x g supernatant)
T1 sequence (P15207 1-902): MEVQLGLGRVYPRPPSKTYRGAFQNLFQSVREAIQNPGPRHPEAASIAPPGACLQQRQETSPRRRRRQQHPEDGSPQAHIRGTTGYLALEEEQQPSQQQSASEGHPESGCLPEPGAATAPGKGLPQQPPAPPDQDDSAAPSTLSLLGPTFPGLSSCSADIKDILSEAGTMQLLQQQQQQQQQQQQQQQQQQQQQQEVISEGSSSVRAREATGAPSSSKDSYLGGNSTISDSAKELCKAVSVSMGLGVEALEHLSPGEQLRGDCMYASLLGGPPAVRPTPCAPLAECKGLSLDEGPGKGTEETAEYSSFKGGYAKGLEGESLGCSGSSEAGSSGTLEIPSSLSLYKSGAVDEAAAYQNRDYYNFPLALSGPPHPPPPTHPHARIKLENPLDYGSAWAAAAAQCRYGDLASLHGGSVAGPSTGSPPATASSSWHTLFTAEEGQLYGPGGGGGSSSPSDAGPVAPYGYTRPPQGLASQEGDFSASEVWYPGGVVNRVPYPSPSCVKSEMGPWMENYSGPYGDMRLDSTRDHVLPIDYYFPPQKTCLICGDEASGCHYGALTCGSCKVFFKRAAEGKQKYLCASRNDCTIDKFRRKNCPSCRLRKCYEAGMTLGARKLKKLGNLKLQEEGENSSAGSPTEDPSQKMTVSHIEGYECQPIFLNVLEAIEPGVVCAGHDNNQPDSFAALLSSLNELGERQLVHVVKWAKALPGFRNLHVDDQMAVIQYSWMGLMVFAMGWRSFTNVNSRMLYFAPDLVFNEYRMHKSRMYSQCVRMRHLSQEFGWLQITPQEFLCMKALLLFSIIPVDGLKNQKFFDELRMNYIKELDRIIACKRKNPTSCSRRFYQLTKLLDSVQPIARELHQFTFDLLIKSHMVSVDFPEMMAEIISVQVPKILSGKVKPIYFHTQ
Procedure: Test for Competitive Binding to Rat Androgen Receptors (Rat AR)
Preparation of rat AR fraction: Prostates were harvested into ice-cooled ET buffer (10 mM Tris, 1 mM EDTA, 5 mM DTT, 10 mM sodium molybdate, pH 7.4) 3 days after orchiectomy in 11-week-old male SD rats. The prostate was finely cut, and ET buffer was added, whereafter the mixture was homogenized using a homogenizer. The homogenate was ultracentrifuged (100,000×g, 60 min, 4° C.), and the supernatant was used as a rat AR fraction (hereinafter referred to as ARF).
Binding test: ^3H-testosterone (hereinafter referred to as ^3H-T) was diluted with ET buffer. Dihydrotestosterone (DHT) was prepared so as to have a concentration (final concentration 1 μM) 400 times the maximum concentration of ^3H-T (2.5 nM). The ^3H-T solution was added to a 1.5 ml tube containing DHT, no DHT, or the test compound with a varying concentration. Further, 200 μg ARF was added to adjust the final volume to 100 μl. The mixture was incubated for 2 hours at 4° C., and then 300 μl of a 0.05% dextran T70-1.0% activated carbon solution was added. The mixture was further incubated for 15 minutes in ice to remove the free ^3H-T. After centrifugation (4° C., 2,500 rpm, 5 min), 275 μl of the supernatant was harvested into a liquid scintillation vial, and 2 ml of clear-sol was added. The mixture was stirred, allowed to stand, and measured for ^3H radioactivity with a liquid scintillation counter.
Calculation of the relative binding inhibition rate: The binding inhibition rate (%) of the compound according to the present invention was calculated from the following equation, and the 50% inhibition concentration (IC50) was calculated by the probit analysis of the concentration-binding inhibition curve.
The relative binding inhibition rate (RBA: Relative Binding Affinity) was obtained from the following equation (Endocrinology 138, 863-870, 1997): RBA=100×(IC50 of hydroxyflutamide)/(IC50 of the compound of the present invention) • RBA's of the compounds of the present invention, calculated as above, are shown in Table 10.

[2] = test system: orchiectomized (ORX) rats; assay: Action of increasing prostate weight in orchiectomized (ORX) rats (Test Example 3); type: in vivo, rat; conditions: 30 mg/kg s.c. once daily for 8 days, ORX SD rats, Mean ± SD
Procedure: Action of Increasing Prostate Weight in Rats After Orchiectomized (ORX) Rats
Orchiectomy was performed in 8-week-old male SD rats. From 5 days postoperation, the compound of the present invention (Example 60, 30 mg/kg), dissolved in a 5% dimethyl sulfoxide-containing olive oil solution, was subcutaneously injected once daily for 8 days. On the next day after final administration, the wet weight of the ventral prostate was measured to evaluate the AR agonistic effect of the compound of the present invention.

[3] = test system: orchiectomized (ORX) rats; assay: Action of increasing prostate weight and bone mineral density in orchiectomized (ORX) rats (Test Example 4); type: in vivo, rat; conditions: 60 mg/kg s.c. once daily, 5 days weekly, 4 weeks, ORX SD rats, Mean ± SD; for Bone mineral density: right femur
Procedure: Action of Increasing Prostate Weight and Bone Mineral Density in Orchiectomized (ORX) Rats
Orchiectomy was performed in 12-week-old male SD rats. From the next day postoperation, the positive control compound dihydrotestosterone (DHT, 10 mg/kg) and the compound of the present invention (Example 60, 60 mg/kg), each dissolved in a 5% dimethyl sulfoxide-containing olive oil solution, were subcutaneously injected once daily, 5 days weekly, for 4 weeks. On the next day after final administration, the wet weight of the ventral prostate was measured to evaluate the AR agonistic effect of the compound of the present invention. On the next day following final administration, moreover, the right femur was removed, and fixed overnight in a 10% neutrally buffered formalin solution. Then, the bone mineral density at the site ranging from the diaphysis to the proximal end was measured by the method of double energy X-ray absorption using a bone mineral content-measuring machine (Aloka, DCS-600) to evaluate increasing action of bone mineral density of the compound of the present invention.

AR = assay: Assignment of compounds as having AR agonistic or AR antagonistic action (description, no method given); conditions: compounds named as usable for category A diseases

Row | Compound | Prostate weight (orchiectomized rats) | RBA (Relative Binding Affinity = 100 x IC50 of hydroxyflutamide / IC50 of the compound) [1] | Weight of prostate [2] | Prostate weight [3] | Prostate weight ([3]; listed as Ex. 60) | Bone mineral density ([3]; 60 mg/kg) | Bone mineral density ([3]; listed as Ex. 60, 60 mg/kg) | AR agonistic action (AR)
1 | CCC(=O)O[C@H]1CC[C@H]2[C@@H]3CCC4=CC(=O)CC[C@]4(C)[C@H]3CC[C@]12C [TP, testosterone propionate] | 80.4 ± 13.7 mg/body weight 100 g |  |  |  |  |  |  | 
2 | CCS(=O)(=O)NCC(C)(C)C1Nc2ccc([N+](=O)[O-])cc2C2C=CCC21 (centres unmarked) [Example 60] |  | 814 | significantly increased the prostate weights | significant increases in the prostate weights | 56 ± 13 mg/body weight 100 g | significantly increased the bone mineral density | 132 ± 7 mg/cm^2 | AR agonistic action
